Target: T1, HMG--CoA reductase (Rattus norvegicus, UniProt P51639)
T1 construct: the microsomal fraction is isolated by differential ultracentrifugation to obtain HMG--CoA reductase enzyme; from tissue; host or cells: rat liver, microsomal fraction
T1 sequence (P51639 1-887): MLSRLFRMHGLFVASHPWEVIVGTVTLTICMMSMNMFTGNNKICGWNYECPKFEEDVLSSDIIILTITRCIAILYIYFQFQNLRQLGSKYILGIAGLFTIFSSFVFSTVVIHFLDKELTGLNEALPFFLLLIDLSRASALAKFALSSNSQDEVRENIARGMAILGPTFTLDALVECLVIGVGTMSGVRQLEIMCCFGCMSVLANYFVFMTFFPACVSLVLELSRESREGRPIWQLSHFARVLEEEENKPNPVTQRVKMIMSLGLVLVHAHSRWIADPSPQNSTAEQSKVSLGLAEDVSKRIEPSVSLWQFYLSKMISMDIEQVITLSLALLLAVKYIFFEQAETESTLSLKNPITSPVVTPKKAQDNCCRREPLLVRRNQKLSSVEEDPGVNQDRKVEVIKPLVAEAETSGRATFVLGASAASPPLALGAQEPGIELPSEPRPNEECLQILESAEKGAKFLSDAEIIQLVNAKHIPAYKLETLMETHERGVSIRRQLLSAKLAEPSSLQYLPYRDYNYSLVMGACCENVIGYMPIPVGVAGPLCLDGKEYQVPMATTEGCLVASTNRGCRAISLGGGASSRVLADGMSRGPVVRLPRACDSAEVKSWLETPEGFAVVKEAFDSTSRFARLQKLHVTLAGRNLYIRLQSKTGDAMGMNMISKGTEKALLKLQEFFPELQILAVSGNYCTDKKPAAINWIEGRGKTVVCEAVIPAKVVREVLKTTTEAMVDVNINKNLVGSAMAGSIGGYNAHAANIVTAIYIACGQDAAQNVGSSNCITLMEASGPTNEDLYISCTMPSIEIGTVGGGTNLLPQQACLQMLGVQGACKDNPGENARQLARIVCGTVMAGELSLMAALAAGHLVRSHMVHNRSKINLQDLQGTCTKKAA
Test: Inhibition of HMG-CoA reductase (microsomal enzyme from rat liver, [14C] HMG-CoA reduction to mevalonolactone)
Format: biochemical
Conditions: rat liver microsomal fraction; compound tested as the dihydroxy sodium carboxylate, 10^-3 to 10^-6 M; 20 minute incubation at 37° C.
Source text: The HMG--CoA reductase inhibitory properties of representative compounds of this invention were established by subjecting the compounds to the following standard experimental test procedure adapted from Rodwell et al., Adv. Lipid Res. 14 1, 1976; Endo et al., FEBS Letters 72 323, 1976; and Tanzawa et al., Biochemia et Biophysica Acta 488 97, 1977.
Rat livers obtained from rats fed on a diet containing 3% cholestyramine and maintained on a reverse lighting regimen for three weeks are homogenized and the microsomal fraction is isolated by differential ultracentrifugation to obtain HMG--CoA reductase enzyme. To a preincubated (five minutes at 37° C.) solution of the compound being tested (as the dihydroxy sodium carboxylate in amounts from 10^-3 to 10^-6 M) in TEDKS100 pH (Tris®40 mM; EDTA 1 mM; dithiothreitol 5 mM; KCl 70 mM; sucrose 100 mM), 7.5 buffer or DMSO dissolved in an assay medium containing 20 μl of 2.5M KCl; 20 μl NADPH (reduced nicotinamide adenine dinucleotide phosphate) (7.5 mM); and 40 μl of labeled (RS) HMG--CoA (3--^14 C; […]; 200 μM) is added 10 μl of preincubated (five minutes at 37° C.) microsomal fraction to obtain a total volume of 125 μl. After a twenty minute incubation period at 37° C., reaction of the enzyme is terminated by addition of 10 μl of 70% HClO4. The assay tubes are then centrifuged for two minutes in a Beckman microfuge II.
To 100 μl of the supernatant liquid is added 10 μl of non-radioactivemevalonic acid lactone (0.25M in 8 mM H2 SO4). An aliquot of the sample is eluted with 8 mM H2 SO4 through Bio Rad Aminex HPX-87H (HPLC; Hewlett-Packard Model 1084B) at a flow rate of 1 mL/minute. The effluent is fractionated, Hydrofluor® is added and radioactivity of the [^14 C] mevalonolactone produced by reduction of [^14 C] HMG--CoA determined with a scintillation counter.
The percent inhibition of HMG--CoA reductase activity is obtained by comparison with a control assay devoid of the test compound. The inhibitory concentration (IC50) is calculated for the various test compounds.

Row | Structure (SMILES) | IC50
1 | COC(=O)C[C@@H](O)C[C@H](O)/C=C/c1oc(C)cc1-c1ccc(F)cc1 [Example 1, (3S,5S,E)-7-[5-Methyl-3-(4-Fluorophenyl)-2-Furanyl]-3,5-Dihydroxy-6-Heptenoic Acid Methyl Ester] | 62 µM
2 | COC(=O)C[C@@H](O)C[C@H](O)/C=C/c1oc(C)cc1-c1ccccc1 [Example 2, (3S,5S,E)-7-[5-Methyl-3-Phenyl-2-Furanyl]-3,5-Dihydroxy-6-Heptenoic Acid Methyl Ester] | 99 µM

Continued, values first:

Row | IC50 | Structure (SMILES)
3 | 56 µM | COC(=O)C[C@@H](O)C[C@H](O)/C=C/c1occc1-c1ccc(F)cc1 [Example 3, (3S,5S,E)-7-[3-(4-Fluorophenyl)-2-Furanyl]-3,5-Dihydroxy-6-Heptenoic Acid Methyl Ester]
4 | 100 µM | COC(=O)C[C@@H](O)C[C@H](O)/C=C/c1ccc(-c2ccc(C(F)(F)F)cc2[N+](=O)[O-])o1 [Example 4, (3S,5S,E)-3,5-Dihydroxy-7-[5-[4-(Trifluoromethyl)-2-Nitrophenyl]-2-Furanyl]-6-Heptenoic Acid Methyl Ester]

Tested on: biosynthesis of cholesterol
Test: not given
Conditions: background art; cited from earlier work

Row | Structure (SMILES) | inhibition of the biosynthesis of cholesterol (in words)
5 | CC[C@H](C)C(=O)O[C@H]1CCC=C2C=C[C@H](C)[C@H](CC[C@@H]3C[C@@H](O)CC(=O)O3)[C@H]21 [compactin] | inhibited
6 | CCC(C)C(=O)OC1CC(C)C=C2C=CC(C)C(CCC3CC(O)CC(=O)O3)C21 (stereo not drawn) [mevinolin] | more effectively

Reference: US4792614A, “Substituted furans as inhibitors of 3-hydroxy-3-methylglutaryl-coa reductase” (American Home Products Corporation, priority 1987, dated 1988)
